In brackets after ≈: the same amount, converted by molar mass.
Legend:
Assay type in all cases: cell-based
[1] = test system: Enterococcus faecalis ATCC29212; experiment: MIC, microbroth dilution; conditions: Enterococcus faecalis ATCC29212, rifS; read-out: Antimicrobial activity (MIC)
[2] = test system: Haemophilus influenzae ATCC10211; experiment: MIC, microbroth dilution; conditions: Haemophilus influenzae ATCC10211, rifS; read-out: Antimicrobial activity (MIC)
[3] = test system: Escherichia coli ATCC25922; experiment: MIC, microbroth dilution; conditions: Escherichia coli ATCC25922, rifS; read-out: Antimicrobial activity (MIC)
[4] = test system: Mycobacterium smegmatis ATCC700084; experiment: MIC, microbroth dilution; conditions: Mycolicibacterium smegmatis; Mycobacterium smegmatis ATCC700084, rifS; read-out: Antimicrobial activity (MIC)
[5] = test system: Staphylococcus aureus ATCC29213; experiment: MIC, microbroth dilution; conditions: Staphylococcus aureus ATCC29213, rifS; read-out: Antimicrobial activity (MIC)
[6] = test system: Streptococcus pyogenes ATCC19615; experiment: MIC, microbroth dilution; conditions: Streptococcus pyogenes ATCC19615, rifS; read-out: Antimicrobial activity (MIC)
[7] = test system: Staphylococcus epidermidis ATCC12228; experiment: MIC, microbroth dilution; conditions: Staphylococcus epidermidis ATCC12228, rifS; read-out: Antimicrobial activity (MIC)
[8] = test system: Staphylococcus aureus EN1252a gyrA^S84L grlA^S80F; experiment: microbe, parasite or virus in culture; conditions: Staphylococcus aureus EN1252a gyrA^S84L grlA^S80F, cipR; read-out: Antimicrobial activity (MIC)
Protocol: (§1) Representative compounds were assayed for antimicrobial activity as follows: Minimum Inhibitory Concentrations (“MICs”) were determined by the microbroth dilution method as per NCCLS guidelines (National Committee for Clinical Laboratory Standards. 2000. Methods for dilution antimicrobial susceptibility tests for bacteria that grow aerobically, 5th ed. M7-A5. National Committee for Clinical Laboratory Standards, Wayne, Pa.), except that all growth incubations were conducted at 37° C. Bacterial cultures were tested in the following bacteriological media: S. aureus, S. epidermidis, and E. coli in Cation-Adjusted Mueller-Hinton Broth, S. pneumoniae in THY Broth supplemented with 1 mg/mL catalase under 5% CO2 atmosphere, S. pyogenes in THY Broth, E. faecalis in BHI Broth, H. influenzae in BHI Broth supplemented with 0.75 μL of 1 mg/mL NAD and 150 μL of 1 mg/ml hematin per 5 mL, and M. smegmatis in Middlebrook Broth plus ADC Enrichment.
(§2) S. aureus ATCC 29213 RpoB^H418Y is a rifampin-resistant strain with a mutation in the RpoB gene of RNA polymerase. […] S. aureus EN1252a gyrA^S84L grlA^S80F is a quinolone-resistant strain due to double gene mutations of DNA gyrase and topoisomerase IV.

[9] = test system: Staphylococcus aureus ATCC29213 rpoB^H418Y; experiment: microbe, parasite or virus in culture; conditions: Staphylococcus aureus ATCC29213 rpoB^H418Y, rifR; read-out: Antimicrobial activity (MIC)
Protocol: as §1, §2

[10] = test system: Staphylococcus aureus ATCC29213 rpoB^D417Y; experiment: microbe, parasite or virus in culture; conditions: Staphylococcus aureus ATCC29213 rpoB^D417Y, rifR; read-out: Antimicrobial activity (MIC)
Protocol: as §1, §2

[11] = test system: Streptococcus pneumoniae ATCC6303; experiment: MIC, microbroth dilution; conditions: Streptococcus pneumoniae ATCC6303, rifS; read-out: Antimicrobial activity (MIC)

Structure (SMILES)	MIC [1] [µg/mL]	MIC [2] [µg/mL]	MIC [3] [µg/mL]	MIC [4] [µg/mL]	MIC [5] [µg/mL]	MIC [6] [µg/mL]	MIC [7] [µg/mL]	MIC [8] [µg/mL]	MIC [9] [µg/mL]	MIC [10] [µg/mL]	MIC [11] [µg/mL]
CO[C@H]1/C=C/O[C@@]2(C)Oc3c(C)c(O)c4c(c3/C2=N/OCC(=O)N2CCN(c3cc5c(cc3F)c(=O)c(C(=O)O)cn5C3CC3)CC2)C(=O)C(N2CCOCC2)=C(NC(=O)/C(C)=C\C=C\[C@H](C)[C@H](O)[C@@H](C)[C@@H](O)[C@@H](C)[C@H](OC(C)=O)[C@@H]1C)C4=O [Example 29, 11-Deoxy-3-(morpholin-4-yl)-11-{2-oxo-2-[4-(3-carboxy-1-cyclopropl-6-fluoro-4-oxo-1,4-dihydroquinolin-7-yl)piperazin-1-yl]ethoxyimino}rifamycin S]	2 to 32 (≈ 1.71 to 27.4 µM)	0.03 to 2 (≈ 0.0257 to 1.71 µM)	0.125 to 8 (≈ 0.107 to 6.85 µM)	0.5 to 64 (≈ 0.428 to 54.8 µM)	0.004 to 0.5 (≈ 0.00343 to 0.428 µM)	0.0005 to 0.063 (≈ 0.000428 to 0.054 µM)	0.0005 to 0.063 (≈ 0.000428 to 0.054 µM)	0.004 to 0.5 (≈ 0.00343 to 0.428 µM)	0.125 to 16 (≈ 0.107 to 13.7 µM)	0.25 to 32 (≈ 0.214 to 27.4 µM)	0.0002 to 0.125 (≈ 0.000171 to 0.107 µM)
COc1c(N2CCN(C(=O)CO/N=C3/c4c5c(C)c(O)c6c4C(=O)C(N4CCOCC4)=C(NC(=O)/C(C)=C\C=C\[C@H](C)[C@H](O)[C@@H](C)[C@@H](O)[C@@H](C)[C@H](OC(C)=O)[C@H](C)[C@@H](OC)/C=C/O[C@@]3(C)O5)C6=O)C(C)C2)c(F)cc2c(=O)c(C(=O)O)cn(C3CC3)c12 (stereo partly shown) [Example 30, 11-Deoxy-3-(morpholin-4-yl)-11-{2-oxo-2-[4-(3-carboxy-1-cyclopropyl-6-fluoro-8-methoxy-4-oxo-1,4-dihydroquinolin-7-yl)-2-methylpiperazin-1-yl]ethoxyimino}rifamycin S]	2 to 32 (≈ 1.65 to 26.4 µM)	0.03 to 2 (≈ 0.0248 to 1.65 µM)	0.125 to 8 (≈ 0.103 to 6.6 µM)	0.5 to 64 (≈ 0.413 to 52.8 µM)	0.004 to 0.5 (≈ 0.0033 to 0.413 µM)	0.0005 to 0.063 (≈ 0.000413 to 0.052 µM)	0.0005 to 0.063 (≈ 0.000413 to 0.052 µM)	0.004 to 0.5 (≈ 0.0033 to 0.413 µM)	0.125 to 16 (≈ 0.103 to 13.2 µM)	0.25 to 32 (≈ 0.206 to 26.4 µM)	0.0002 to 0.125 (≈ 0.000165 to 0.103 µM)
CO[C@H]1/C=C/O[C@@]2(C)Oc3c(C)c(O)c4c(c3/C2=N/O)C(=O)C(N2CCN(c3cc5c(cc3F)c(=O)c(C(=O)O)cn5C3CC3)CC2)=C(NC(=O)/C(C)=C\C=C\[C@H](C)[C@H](O)[C@@H](C)[C@@H](O)[C@@H](C)[C@H](OC(C)=O)[C@@H]1C)C4=O [Example 33, 11-Deoxy-3-[4-(3-carboxy-1-cyclopropyl-6-fluoro-4-oxo-1,4-dihydroquinolin-7-yl)piperazin-1-yl]-11-hydroxyiminorifamycin S]	2 to 32 (≈ 1.92 to 30.8 µM)	0.03 to 2 (≈ 0.0288 to 1.92 µM)	0.125 to 8 (≈ 0.12 to 7.69 µM)	0.5 to 64 (≈ 0.481 to 61.5 µM)	0.004 to 0.5 (≈ 0.00385 to 0.481 µM)	0.0005 to 0.063 (≈ 0.000481 to 0.0606 µM)	0.0005 to 0.063 (≈ 0.000481 to 0.0606 µM)	0.004 to 0.5 (≈ 0.00385 to 0.481 µM)	0.125 to 16 (≈ 0.12 to 15.4 µM)	0.25 to 32 (≈ 0.24 to 30.8 µM)	0.0002 to 0.125 (≈ 0.000192 to 0.12 µM)
CO[C@H]1/C=C/O[C@@]2(C)Oc3c(C)c(O)c4c(c3/C2=N/O)C(=O)C(N2CCOCC2)=C(NC(=O)/C(C)=C\C=C\[C@H](C)[C@H](O)[C@@H](C)[C@@H](O)[C@@H](C)[C@H](OC(C)=O)[C@@H]1C)C4=O [Example 34, 11-Deoxy-3-(morpholin-4-yl)-11-hydroxyiminorifamycin S]	2 to 32 (≈ 2.51 to 40.2 µM)	0.03 to 2 (≈ 0.0377 to 2.51 µM)	0.125 to 8 (≈ 0.157 to 10.1 µM)	0.5 to 64 (≈ 0.628 to 80.4 µM)	0.004 to 0.5 (≈ 0.00503 to 0.628 µM)	0.0005 to 0.063 (≈ 0.000628 to 0.0792 µM)	0.0005 to 0.063 (≈ 0.000628 to 0.0792 µM)	0.004 to 0.5 (≈ 0.00503 to 0.628 µM)	0.125 to 16 (≈ 0.157 to 20.1 µM)	0.25 to 32 (≈ 0.314 to 40.2 µM)	0.0002 to 0.125 (≈ 0.000251 to 0.157 µM)
CO/N=C1/c2c3c(C)c(O)c4c2C(=O)C(N2CCOCC2)=C(NC(=O)/C(C)=C\C=C\[C@H](C)[C@H](O)[C@@H](C)[C@@H](O)[C@@H](C)[C@H](OC(C)=O)[C@H](C)[C@@H](OC)/C=C/O[C@@]1(C)O3)C4=O [Example 35, 11-Deoxy-3-(morpholin-4-yl)-11-methoxyiminorifamycin S]	2 to 32 (≈ 2.47 to 39.5 µM)	0.03 to 2 (≈ 0.037 to 2.47 µM)	0.125 to 8 (≈ 0.154 to 9.88 µM)	0.5 to 64 (≈ 0.617 to 79 µM)	0.004 to 0.5 (≈ 0.00494 to 0.617 µM)	0.0005 to 0.063 (≈ 0.000617 to 0.0778 µM)	0.0005 to 0.063 (≈ 0.000617 to 0.0778 µM)	0.004 to 0.5 (≈ 0.00494 to 0.617 µM)	0.125 to 16 (≈ 0.154 to 19.8 µM)	0.25 to 32 (≈ 0.309 to 39.5 µM)	0.0002 to 0.125 (≈ 0.000247 to 0.154 µM)
